Reference: ChEMBL document CHEMBL1201862, “PubChem BioAssay data set” (2004)
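Step 1: Grow cells in 96-well plates. Step 2: Expose to compound for 48 hours at 5 concentrations. Step 3: Interpolate endpoints linearly; if unreached, use highest concentration. Abbreviation: GI50, concentration required for 50% inhibition of growth.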 Calls of active or inactive are those of the source. No stated cut-off is given here; in the data, active = GI50 up to about 1.1 µM and inactive = higher. Where a SMILES comes first, the peptide text is derived from it. The star is where a group is joined. Boc = CC(C)(C)OC(=O)*

Columns and labels:
Experiment in all cases: inhibition of tumour cell growth, NCI panel, 48 h
A498 = test system: A498
ACHN = test system: ACHN
CAKI-1 = test system: CAKI-1
CCRF-CEM = test system: CCRF-CEM
HCT-116 = test system: HCT-116
HL-60 = test system: HL-60
IGROV-1 = test system: IGROV-1
K562 = test system: K562
KM12 = test system: KM12
LOX IMVI = test system: LOX IMVI
MCF7 = test system: MCF7
MDA-N = test system: MDA-N
Malme-3M = test system: Malme-3M
NCI-H23 = test system: NCI-H23
SF-539 = test system: SF-539
SK-MEL-28 = test system: SK-MEL-28
SK-MEL-2 = test system: SK-MEL-2
SNB-19 = test system: SNB-19
SK-OV-3 = test system: SK-OV-3
UACC-62 = test system: UACC-62

Row | Structure (SMILES) | GI50 (A498) | GI50 (ACHN) | GI50 (CAKI-1) | GI50 (CCRF-CEM) | GI50 (HCT-116) | GI50 (HL-60) | GI50 (IGROV-1) | GI50 (K562) | GI50 (KM12) | GI50 (LOX IMVI) | GI50 (MCF7) | GI50 (MDA-N) | GI50 (Malme-3M) | GI50 (NCI-H23) | GI50 (SF-539) | GI50 (SK-MEL-28) | GI50 (SK-MEL-2) | GI50 (SNB-19) | GI50 (SK-OV-3) | GI50 (UACC-62)
1 | COC(CN(C(C)=O)C1CCC2(SCCS2)c2[nH]c3ccccc3c21)OC (stereo not drawn) | > 100 µM (inactive) | > 100 µM (inactive) | > 100 µM (inactive) | > 100 µM (inactive) | > 100 µM (inactive) | 89.9 µM (inactive) | > 100 µM (inactive) | > 100 µM (inactive) | > 100 µM (inactive) | 0.0422 µM (active) | > 100 µM (inactive) | > 100 µM (inactive) | > 100 µM (inactive) | > 100 µM (inactive) | > 100 µM (inactive) | > 100 µM (inactive) | > 100 µM (inactive) | > 100 µM (inactive) |  | 
2 | COc1cc(/C=C2\C(=O)N(Cc3ccccc3)C(c3ccccc3)S2(=O)=O)cc(OC)c1OC (stereo not drawn) | 21.4 µM (inactive) | 67.3 µM (inactive) | > 100 µM (inactive) | 36.5 µM (inactive) | 17.6 µM (inactive) | 5.13 µM (inactive) |  | 5.12 µM (inactive) | 34.7 µM (inactive) | 27.5 µM (inactive) | 26.3 µM (inactive) | 61.8 µM (inactive) | 39.9 µM (inactive) | 33.4 µM (inactive) |  | 93.8 µM (inactive) | 27.1 µM (inactive) | > 100 µM (inactive) | > 100 µM (inactive) | 35.2 µM (inactive)
3 | CC1SCCc2nc3ccccc3n21 (stereo not drawn) | > 100 µM (inactive) |  | > 100 µM (inactive) | > 100 µM (inactive) | > 100 µM (inactive) | > 100 µM (inactive) | > 100 µM (inactive) | > 100 µM (inactive) | > 100 µM (inactive) | > 100 µM (inactive) | > 100 µM (inactive) | > 100 µM (inactive) |  | > 100 µM (inactive) | > 100 µM (inactive) | > 100 µM (inactive) | > 100 µM (inactive) | > 100 µM (inactive) | > 100 µM (inactive) | > 100 µM (inactive)
4 | COc1cc(C)cc2c1C(=O)C(NC(C)=O)=CC2=O | > 100 µM (inactive) | > 100 µM (inactive) | > 100 µM (inactive) | 34.3 µM (inactive) | > 100 µM (inactive) | 23.3 µM (inactive) | > 100 µM (inactive) | 43.1 µM (inactive) | > 100 µM (inactive) |  | 67.1 µM (inactive) | 18.1 µM (inactive) | > 100 µM (inactive) | > 100 µM (inactive) | > 100 µM (inactive) | > 100 µM (inactive) | > 100 µM (inactive) | > 100 µM (inactive) | > 100 µM (inactive) | 58.7 µM (inactive)
5 | CC(C)OC(=O)c1ccc(NCc2cc(O)ccc2O)cc1Cl | 11 µM (inactive) | 1.78 µM (inactive) | 0.861 µM (active) | 0.258 µM (active) | 8.87 µM (inactive) | 0.364 µM (active) | 2.31 µM (inactive) | 0.501 µM (active) | 3.64 µM (inactive) | 3.27 µM (inactive) | 3.47 µM (inactive) | 3.18 µM (inactive) |  | 4.39 µM (inactive) | 1.75 µM (inactive) | 4.28 µM (inactive) | 15.1 µM (inactive) | 2.64 µM (inactive) | 7.21 µM (inactive) | 5.26 µM (inactive)
6 | CSc1ccc(/C=C2\N=C(c3ccccc3)N(c3nc4cc(Cl)c(F)cc4s3)C2=O)cc1 | 43.5 µM (inactive) | 36.4 µM (inactive) | > 100 µM (inactive) | 25 µM (inactive) | 36.2 µM (inactive) | 38.3 µM (inactive) | 36.5 µM (inactive) | 71.3 µM (inactive) | 31.4 µM (inactive) | 20.3 µM (inactive) | 39.9 µM (inactive) | 30.3 µM (inactive) |  |  | 26.3 µM (inactive) | > 100 µM (inactive) | 18.2 µM (inactive) | 25.1 µM (inactive) | 64.3 µM (inactive) | 43.6 µM (inactive)
7 | O=P1(N2CCOCC2)OCCO1 | > 100 µM (inactive) | > 100 µM (inactive) | > 100 µM (inactive) | > 100 µM (inactive) | > 100 µM (inactive) | > 100 µM (inactive) | > 100 µM (inactive) | > 100 µM (inactive) | > 100 µM (inactive) | > 100 µM (inactive) | > 100 µM (inactive) | > 100 µM (inactive) | > 100 µM (inactive) | > 100 µM (inactive) |  | > 100 µM (inactive) |  | > 100 µM (inactive) |  | > 100 µM (inactive)
8 | CCCCCCSc1nc(COC(=O)NC)c(COC(=O)NC)n1C | > 100 µM (inactive) | > 100 µM (inactive) | > 100 µM (inactive) | > 100 µM (inactive) | > 100 µM (inactive) | > 100 µM (inactive) | > 100 µM (inactive) | > 100 µM (inactive) | > 100 µM (inactive) | > 100 µM (inactive) | > 100 µM (inactive) | > 100 µM (inactive) |  | > 100 µM (inactive) | > 100 µM (inactive) | > 100 µM (inactive) | > 100 µM (inactive) | > 100 µM (inactive) | > 100 µM (inactive) | > 100 µM (inactive)
9 | COC(=O)CNC(=O)C(Cc1ccccc1)NC(=O)C(CCSC)NC(=O)C(Cc1ccc(O)cc1)NC(=O)OC(C)(C)C (stereo not drawn) (Boc-YMFG-OMe; configuration not given here) | > 100 µM (inactive) | > 100 µM (inactive) | > 100 µM (inactive) |  | 54.3 µM (inactive) | 53 µM (inactive) | 62.7 µM (inactive) | 49.8 µM (inactive) | > 100 µM (inactive) | 18.5 µM (inactive) | 41.8 µM (inactive) | 33.3 µM (inactive) | > 100 µM (inactive) | 56.1 µM (inactive) | > 100 µM (inactive) | 18.2 µM (inactive) | 18.1 µM (inactive) | 37.8 µM (inactive) | > 100 µM (inactive) | 30.1 µM (inactive)
10 | Cc1ccc2c(O)cc(-c3cc(C)sc3C)nc2n1 | 4.78 µM (inactive) | 8.13 µM (inactive) | 14.4 µM (inactive) | 2.53 µM (inactive) | 3.84 µM (inactive) | 1.53 µM (inactive) | 3.36 µM (inactive) | 2.94 µM (inactive) | 3.3 µM (inactive) | 5.08 µM (inactive) | 2.18 µM (inactive) | 0.455 µM (active) | 3.56 µM (inactive) | 2.25 µM (inactive) | 2.3 µM (inactive) | 5.53 µM (inactive) |  | 3.66 µM (inactive) | 3.77 µM (inactive) | 4.88 µM (inactive)
11 | N#CC1=C(S)N(C2OC(CO)C(O)C(O)C2O)C(c2ccccc2)=CC1c1cccs1 (stereo not drawn) | > 10 µM (inactive) | 18.7 µM (inactive) | 23.1 µM (inactive) | 22.3 µM (inactive) | 26.3 µM (inactive) | 28.9 µM (inactive) | 22.6 µM (inactive) | 31.1 µM (inactive) | 18.8 µM (inactive) | 18.7 µM (inactive) | 15.3 µM (inactive) | 15.4 µM (inactive) | 19.3 µM (inactive) | 28.1 µM (inactive) | 18.6 µM (inactive) | 21.1 µM (inactive) | 22.5 µM (inactive) | > 10 µM (inactive) |  | 18.8 µM (inactive)
12 | COc1ccc([C@@]23Oc4cc(OC)cc(OC)c4[C@]2(O)[C@H](O)[C@H](C(=O)N(C)C)[C@H]3c2ccccc2)cc1 [ROCAGLAMIDE] | 0.00791 µM (active) | 0.00344 µM (active) | 0.0292 µM (active) | 0.00366 µM (active) | 0.00316 µM (active) | 0.00383 µM (active) | 0.00612 µM (active) | 0.00237 µM (active) | 0.00294 µM (active) | 0.00191 µM (active) | 0.00292 µM (active) | 0.00355 µM (active) | 0.00429 µM (active) | 0.00885 µM (active) |  | 0.00689 µM (active) | 0.0197 µM (active) | 0.267 µM (active) | 0.00575 µM (active) | 0.00676 µM (active)
13 | CC(=O)O[C@H]1[C@@H]2OC(=O)[C@@](O)(CC3CCCO3)[C@@H]2CC(=O)[C@](C)(O)CC/C=C(\C)CCC[C@@H]1C (stereo partly drawn) | > 100 µM (inactive) | 38.8 µM (inactive) | 19.9 µM (inactive) | 22.7 µM (inactive) |  | 21.5 µM (inactive) | 46.5 µM (inactive) | 24.4 µM (inactive) | 67.6 µM (inactive) | 20.8 µM (inactive) | 24.7 µM (inactive) | 20.6 µM (inactive) | 41.2 µM (inactive) |  | 19.1 µM (inactive) | 20.3 µM (inactive) | 57.5 µM (inactive) | > 100 µM (inactive) |  | 67.3 µM (inactive)
14 | CCc1nc2ccc(C(F)(F)F)cc2[nH]c1=O | 94.4 µM (inactive) | > 100 µM (inactive) | 80.7 µM (inactive) | > 100 µM (inactive) | > 100 µM (inactive) | > 100 µM (inactive) |  | > 100 µM (inactive) | > 100 µM (inactive) | > 100 µM (inactive) | > 100 µM (inactive) | > 100 µM (inactive) | > 100 µM (inactive) | > 100 µM (inactive) | > 100 µM (inactive) | > 100 µM (inactive) | > 100 µM (inactive) | > 100 µM (inactive) | > 100 µM (inactive) | > 100 µM (inactive)
